In ChEMBL document CHEMBL3046644, “Biological activity of tropolone” (Biol Pharm Bull, 2003):
Values after ≈ are worked out from the molar mass of the structure shown.

Key:
[1] = test system: Coptotermes formosanus; assay: Insecticidal activity against Coptotermes formosanus assessed as mortality at 0.00010 g/m'2 after 24 hr; assay type: functional
[2] = test system: Coptotermes formosanus; assay: Insecticidal activity against Coptotermes formosanus assessed as mortality; assay type: functional
[3] = test system: Coptotermes formosanus; assay: Insecticidal activity against Coptotermes formosanus assessed as mortality at 0.00025 g/m'2 after 24 hr; assay type: functional
[4] = test system: Coptotermes formosanus; assay: Insecticidal activity against Coptotermes formosanus assessed as mortality at 0.00010 g/m'2 after 48 hr; assay type: functional
[5] = test system: Coptotermes formosanus; assay: Insecticidal activity against Coptotermes formosanus assessed as mortality at 0.00025 g/m'2 after 48 hr; assay type: functional
[6] = test system: Coptotermes formosanus; assay: Insecticidal activity against Coptotermes formosanus assessed as mortality at 0.00050 g/m'2 after 24 hr; assay type: functional
[7] = test system: Coptotermes formosanus; assay: Insecticidal activity against Coptotermes formosanus assessed as mortality at 0.00050 g/m'2 after 48 hr; assay type: functional
[8] = test system: Coptotermes formosanus; assay: Insecticidal activity against Coptotermes formosanus assessed as mortality at 0.00005 g/m'2 after 24 hr; assay type: functional
[9] = test system: Coptotermes formosanus; assay: Insecticidal activity against Coptotermes formosanus assessed as mortality at 0.00005 g/m'2 after 48 hr; assay type: functional
[10] = test system: Coptotermes formosanus; assay: Insecticidal activity against Coptotermes formosanus assessed as mortality at 0.00001 g/m'2 after 24 hr; assay type: functional
[11] = test system: Dermatophagoides farinae; assay: Insecticidal activity against Dermatophagoides farinae assessed as mortality at 0.10 g/m'2 after 24 hr by clip method; assay type: functional
[12] = test system: Tyrophagus putrescentiae; assay: Insecticidal activity against Tyrophagus putrescentiae assessed as mortality at 0.20 g/m'2 after 24 hr by clip method; assay type: functional
[13] = test system: Tyrophagus putrescentiae; assay: Insecticidal activity against Tyrophagus putrescentiae assessed as mortality after 24 hr by clip method; assay type: functional
[14] = test system: Dermatophagoides farinae; assay: Insecticidal activity against Dermatophagoides farinae assessed as mortality after 24 hr by clip method; assay type: functional
[15] = test system: Tyrophagus putrescentiae; assay: Insecticidal activity against Tyrophagus putrescentiae assessed as mortality at 0.50 g/m'2 after 24 hr by clip method; assay type: functional
[16] = test system: Tyrophagus putrescentiae; assay: Insecticidal activity against Tyrophagus putrescentiae assessed as mortality at 1 g/m'2 after 24 hr by clip method; assay type: functional
[17] = test system: Tyrophagus putrescentiae; assay: Insecticidal activity against Tyrophagus putrescentiae assessed as mortality at 0.10 g/m'2 after 24 hr by clip method; assay type: functional
[18] = test system: Dermatophagoides farinae; assay: Insecticidal activity against Dermatophagoides farinae assessed as mortality at 0.20 g/m'2 after 24 hr by clip method; assay type: functional
[19] = test system: Dermatophagoides farinae; assay: Insecticidal activity against Dermatophagoides farinae assessed as mortality at 0.50 g/m'2 after 24 hr by clip method; assay type: functional
[20] = test system: Dermatophagoides farinae; assay: Insecticidal activity against Dermatophagoides farinae assessed as mortality at 1 g/m'2 after 24 hr by clip method; assay type: functional
[21] = test system: Tyrophagus putrescentiae; assay: Insecticidal activity against Tyrophagus putrescentiae assessed as mortality at 0.40 g/m'2 after 24 hr by clip method; assay type: functional
[22] = test system: Dermatophagoides farinae; assay: Insecticidal activity against Dermatophagoides farinae assessed as mortality at 0.025 g/m'2 after 24 hr by clip method; assay type: functional
[23] = test system: Phomopsis obscurans; assay: Antifungal activity against Phomopsis obscurans MAFF 744018 after 15 days by agar dilution method; assay type: functional; conditions: Paraphomopsis obscurans, MAFF 744018, 360 h
[24] = test system: Thanatephorus cucumeris; assay: Antifungal activity against Thanatephorus cucumeris IFO 30445 after 15 days by agar dilution method; assay type: functional; conditions: IFO 30445, 360 h
[25] = biological target: T1, Thermolysin (Bacillus thermoproteolyticus, UniProt P00800); assay: Inhibition of Bacillus thermoproteolyticus thermolysin after 15 min
T1 sequence (P00800 whole entry): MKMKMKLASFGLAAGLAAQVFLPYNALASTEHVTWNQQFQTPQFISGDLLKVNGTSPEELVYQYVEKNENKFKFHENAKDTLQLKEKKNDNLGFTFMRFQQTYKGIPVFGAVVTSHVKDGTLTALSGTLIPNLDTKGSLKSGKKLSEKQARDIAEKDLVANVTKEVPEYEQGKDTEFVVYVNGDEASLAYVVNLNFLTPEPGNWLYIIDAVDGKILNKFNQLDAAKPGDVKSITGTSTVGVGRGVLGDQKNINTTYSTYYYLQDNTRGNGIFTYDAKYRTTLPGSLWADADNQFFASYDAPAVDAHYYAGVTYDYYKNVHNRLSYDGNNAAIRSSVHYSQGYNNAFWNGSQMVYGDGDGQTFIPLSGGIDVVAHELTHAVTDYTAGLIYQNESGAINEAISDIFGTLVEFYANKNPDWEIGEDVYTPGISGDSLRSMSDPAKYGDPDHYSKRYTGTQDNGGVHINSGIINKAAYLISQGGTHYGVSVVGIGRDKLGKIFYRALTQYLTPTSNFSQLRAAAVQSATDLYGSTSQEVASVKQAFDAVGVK

[26] = biological target: T2, Carboxypeptidase A1 (Bos taurus, UniProt P00730); assay: Inhibition of Bos taurus (bovine) pancrease carboxypeptidase A after 15 min
T2 sequence (P00730 whole entry): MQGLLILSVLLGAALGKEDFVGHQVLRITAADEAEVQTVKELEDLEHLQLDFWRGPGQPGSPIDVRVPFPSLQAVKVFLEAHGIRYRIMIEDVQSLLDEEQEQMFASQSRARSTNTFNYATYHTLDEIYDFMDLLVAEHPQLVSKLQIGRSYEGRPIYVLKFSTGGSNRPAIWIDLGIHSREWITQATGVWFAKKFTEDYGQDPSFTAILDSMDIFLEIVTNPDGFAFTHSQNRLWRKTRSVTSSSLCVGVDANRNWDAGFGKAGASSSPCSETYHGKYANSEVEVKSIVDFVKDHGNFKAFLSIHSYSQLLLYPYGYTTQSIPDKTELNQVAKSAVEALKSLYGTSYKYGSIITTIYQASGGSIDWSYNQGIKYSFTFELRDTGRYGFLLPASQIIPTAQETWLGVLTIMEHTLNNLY

[27] = test system: Fusarium solani; assay: Antifungal activity against Fusarium solani IFO 9955 after 15 days by agar dilution method; assay type: functional; conditions: IFO 9955, 360 h
[28] = test system: Coptotermes formosanus; assay: Insecticidal activity against Coptotermes formosanus assessed as mortality at 0.025 g/m'2 after 48 hr; assay type: functional
[29] = test system: Dermatophagoides farinae; assay: Insecticidal activity against Dermatophagoides farinae assessed as mortality at 0.30 g/m'2 after 24 hr by clip method; assay type: functional
[30] = test system: Coptotermes formosanus; assay: Insecticidal activity against Coptotermes formosanus assessed as mortality at 0.200 g/m'2 after 24 hr; assay type: functional
[31] = test system: Dermatophagoides farinae; assay: Insecticidal activity against Dermatophagoides farinae assessed as mortality at 0.05 g/m'2 after 24 hr by clip method; assay type: functional
[32] = test system: Coptotermes formosanus; assay: Insecticidal activity against Coptotermes formosanus assessed as mortality at 0.050 g/m'2 after 24 hr; assay type: functional
[33] = test system: Pythium aphanidermatum; assay: Antifungal activity against Pythium aphanidermatum IFO 32440 after 15 days by agar dilution method; assay type: functional; conditions: IFO 32440, 360 h
[34] = test system: Coptotermes formosanus; assay: Insecticidal activity against Coptotermes formosanus assessed as mortality at 0.050 g/m'2 after 48 hr; assay type: functional
[35] = test system: Botrytis cinerea; assay: Antifungal activity against Botryotinia fuckeliana IFO 30915 after 15 days by agar dilution method; assay type: functional; conditions: IFO 30915, 360 h
[36] = test system: Coptotermes formosanus; assay: Insecticidal activity against Coptotermes formosanus assessed as mortality at 0.025 g/m'2 after 24 hr; assay type: functional
[37] = test system: Colletotrichum lagenaria; assay: Antifungal activity against Colletotrichum lagenaria after 15 days by agar dilution method; assay type: functional; conditions: 360 h
[38] = test system: Dermatophagoides farinae; assay: Insecticidal activity against Dermatophagoides farinae assessed as mortality at 0.40 g/m'2 after 24 hr by clip method; assay type: functional
[39] = test system: Coptotermes formosanus; assay: Insecticidal activity against Coptotermes formosanus assessed as mortality at 0.100 g/m'2 after 48 hr; assay type: functional
[40] = test system: Coptotermes formosanus; assay: Insecticidal activity against Coptotermes formosanus assessed as mortality at 0.200 g/m'2 after 48 hr; assay type: functional
[41] = test system: Tyrophagus putrescentiae; assay: Insecticidal activity against Tyrophagus putrescentiae assessed as mortality at 0.30 g/m'2 after 24 hr by clip method; assay type: functional
[42] = test system: Colletotrichum orbiculare; assay: Antifungal activity against Colletotrichum orbiculare MAFF 306518 after 15 days by agar dilution method; assay type: functional; conditions: MAFF 306518, 360 h
[43] = biological target: T3, Collagenase ColG (Clostridium histolyticum, UniProt Q9X721); assay: Inhibition of Clostridium histolyticum collagenase after 15 min; design: species or system Hathewaya histolytica
T3 sequence (Q9X721 whole entry): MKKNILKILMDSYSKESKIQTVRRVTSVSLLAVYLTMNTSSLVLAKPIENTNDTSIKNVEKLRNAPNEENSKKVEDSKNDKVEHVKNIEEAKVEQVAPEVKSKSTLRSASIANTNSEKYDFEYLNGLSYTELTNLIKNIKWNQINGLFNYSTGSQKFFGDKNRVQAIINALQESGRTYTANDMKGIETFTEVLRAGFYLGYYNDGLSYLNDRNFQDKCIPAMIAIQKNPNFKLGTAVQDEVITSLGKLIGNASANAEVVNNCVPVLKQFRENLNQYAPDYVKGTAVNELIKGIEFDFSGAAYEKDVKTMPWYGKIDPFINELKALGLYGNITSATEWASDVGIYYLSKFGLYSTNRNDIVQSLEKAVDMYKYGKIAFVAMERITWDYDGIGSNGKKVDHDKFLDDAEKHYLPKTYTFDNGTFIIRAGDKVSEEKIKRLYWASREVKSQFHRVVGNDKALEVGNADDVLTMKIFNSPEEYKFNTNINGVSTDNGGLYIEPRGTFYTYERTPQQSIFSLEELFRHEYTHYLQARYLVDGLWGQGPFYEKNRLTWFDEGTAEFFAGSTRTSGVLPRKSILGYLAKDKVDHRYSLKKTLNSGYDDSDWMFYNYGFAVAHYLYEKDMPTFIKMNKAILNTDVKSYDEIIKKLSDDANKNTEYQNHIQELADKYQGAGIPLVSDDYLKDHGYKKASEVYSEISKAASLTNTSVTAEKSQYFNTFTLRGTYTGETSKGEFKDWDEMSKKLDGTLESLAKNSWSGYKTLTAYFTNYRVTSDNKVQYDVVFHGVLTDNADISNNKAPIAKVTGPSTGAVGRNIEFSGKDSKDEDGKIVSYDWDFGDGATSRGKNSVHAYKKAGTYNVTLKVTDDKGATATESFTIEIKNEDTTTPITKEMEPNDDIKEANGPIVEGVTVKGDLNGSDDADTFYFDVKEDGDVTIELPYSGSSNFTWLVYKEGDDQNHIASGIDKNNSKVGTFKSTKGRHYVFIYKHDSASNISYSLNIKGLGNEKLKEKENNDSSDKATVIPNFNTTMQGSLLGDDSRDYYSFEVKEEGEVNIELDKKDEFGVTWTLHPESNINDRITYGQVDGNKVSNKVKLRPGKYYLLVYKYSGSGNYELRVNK

[44] = test system: Coptotermes formosanus; assay: Insecticidal activity against Coptotermes formosanus assessed as mortality at 0.100 g/m'2 after 24 hr; assay type: functional

Compound CCOP(=S)(OCC)Oc1nc(Cl)c(Cl)cc1Cl [CHLORPYRIFOS] has a mortality [1] of 25%, an LC50 [2] of 0.00016 g/m2 and a mortality [3] of 60%. The mortality [4] was 75%, the mortality [5] was 100% and the mortality [6] was 100%. The mortality [7] was 100%, the mortality [8] was 10% and the mortality [9] was 40%. The mortality [10] was 0%.
Work on CCN(CC)C(=O)c1cccc(C)c1 [DIETHYLTOLUAMIDE] yielded a mortality [11] of 0%, a mortality [12] of 4.5% and an LC50 [13] of 1.46 g/m2. For the same compound, the LC50 [14] was 0.79 g/m2, the mortality [15] was 18.9% and the mortality [16] was 67.1%. The mortality [17] was 0%, the mortality [18] was 7.2% and the mortality [19] was 20.5%. It also gave a mortality [20] of 45.5%.
In the case of CC(C)c1cccc(=O)c(O)c1 [HINOKITIOL], the mortality [11] is reported as 45.2%, the LC50 [2] is reported as 0.08 g/m2 and the mortality [12] is reported as 33.6%. The LC50 [13] was 0.24 g/m2, the mortality [21] was 77.5% and the mortality [22] was 7.8%. For the same compound, the LC50 [14] was 0.37 g/m2, the MIC [23] was 12 µg/mL (≈ 73.1 µM) and the MIC [24] was 12 µg/mL (≈ 73.1 µM). For the same compound, the IC50 [25] was 61 µM, the IC50 [26] was 2.76 µM and the MIC [27] was 50 µg/mL (≈ 304 µM). For the same compound, the mortality [28] was 20%, the mortality [29] was 100% and the mortality [30] was 100%. For the same compound, the mortality [31] was 18.8%, the mortality [32] was 40% and the MIC [33] was 12 µg/mL (≈ 73.1 µM). For the same compound, the mortality [34] was 50%, the MIC [35] was 50 µg/mL (≈ 304 µM) and the mortality [36] was 10%. It also gave an MIC [37] of 25 µg/mL (≈ 152 µM), a mortality [38] of 100% and a mortality [39] of 100%. The mortality [40] was 100%, the mortality [15] was 91.3% and the mortality [41] was 55.5%. For the same compound, the mortality [17] was 11.9%, the MIC [42] was 25 µg/mL (≈ 152 µM) and the IC50 [43] was 24 µM. It also gave a mortality [18] of 96.3%, a mortality [19] of 100% and a mortality [44] of 50%.
